Source: patent US20160184795A1, “METHODS AND SYSTEMS FOR […]” (SHELL OIL COMPANY, priority 2014, published 2016)
Several values for one entry are separate records, joined by “and”; a condition that tells them apart may be missing. Identical values can stand only once.

Experiment: Solubility of alkylphenol in water at digestion conditions
Format: physicochemical
Details: 240 C, 15 bar N2, 30 g xylenol + 30 g deionized water, phases separated hot, consecutive samples via bottom dip tube
Source text: Stirring was stopped, and phases were allowed to separate while hot, before sampling of all reactor contents via consecutive withdrawal of samples via a bottom dip tube.

With `Cc1cccc(C)c1O` [xylenol, 2,6-dimethylphenol] the “weight fraction of xylenol in water, individual samples withdrawn” value was 18.6 weight percent and 26 weight percent and 32 weight percent.
